Experimental data reported in US7723320B2, “Use of estrogen compounds to increase libido in women” (Pantarhei Bioscience B.V., priority 2001, dated 2010).
Where two headings read alike, the source gives them in different places.

What was measured:
[1] = biological target: T1, human sex Hormone Binding Globulin (SHBG) (Homo sapiens, UniProt P04278); test: Competitive steroid-binding assay, SHBG; conditions: [3H]DHT or [3H]estradiol as labeled ligands
T1 construct: made in house; host or cells: transgenic mouse (purified from serum)
T1 sequence (P04278 30-402): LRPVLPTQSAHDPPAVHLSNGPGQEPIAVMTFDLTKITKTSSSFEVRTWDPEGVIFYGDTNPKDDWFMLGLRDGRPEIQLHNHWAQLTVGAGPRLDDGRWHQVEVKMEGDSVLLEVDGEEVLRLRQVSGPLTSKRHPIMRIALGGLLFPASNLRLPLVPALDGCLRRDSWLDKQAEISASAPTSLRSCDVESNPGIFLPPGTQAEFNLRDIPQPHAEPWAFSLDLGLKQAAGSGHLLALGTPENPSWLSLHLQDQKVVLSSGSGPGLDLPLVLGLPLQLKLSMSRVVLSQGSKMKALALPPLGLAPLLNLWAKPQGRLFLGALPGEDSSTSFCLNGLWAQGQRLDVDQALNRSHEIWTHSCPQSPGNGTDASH
Procedure: Human SHBG was treated for 30 min at room temperature with a dextran-coated charcoal (DCC) suspension in phosphate buffered saline (PBS) to remove any steroid ligand. After centrifugation (2,000×g for 10 min) to sediment the DCC, the supernatant containing the human SHBG was diluted in PBS to a concentration of 1 nM based on its steroid binding capacity.
The average amounts of [^3H]labeled ligands bound to SHBG at each concentration of competitor (B) were expressed as a percentage of the average amounts of [^3H]labeled ligands bound to SHBG in the absence of competitor (B0), and were plotted against the concentration of competitor in each assay tube.

human ERβ = biological target: T2, human ERβ (Homo sapiens, UniProt Q92731); test: Competitive steroid binding assay, ERβ; conditions: read-out: Percent inhibition of specific binding in ERβ steroid binding assay; for inhibition at 0.03 µM: E4 0.03 μM; for inhibition at 0.1 µM: E4 0.1 μM; for inhibition at 0.3 µM: E4 0.3 μM; for inhibition at 1 µM: E4 1 μM
T2 construct: made in house; host or cells: Sf9 insect cells
T2 sequence (Q92731 whole entry): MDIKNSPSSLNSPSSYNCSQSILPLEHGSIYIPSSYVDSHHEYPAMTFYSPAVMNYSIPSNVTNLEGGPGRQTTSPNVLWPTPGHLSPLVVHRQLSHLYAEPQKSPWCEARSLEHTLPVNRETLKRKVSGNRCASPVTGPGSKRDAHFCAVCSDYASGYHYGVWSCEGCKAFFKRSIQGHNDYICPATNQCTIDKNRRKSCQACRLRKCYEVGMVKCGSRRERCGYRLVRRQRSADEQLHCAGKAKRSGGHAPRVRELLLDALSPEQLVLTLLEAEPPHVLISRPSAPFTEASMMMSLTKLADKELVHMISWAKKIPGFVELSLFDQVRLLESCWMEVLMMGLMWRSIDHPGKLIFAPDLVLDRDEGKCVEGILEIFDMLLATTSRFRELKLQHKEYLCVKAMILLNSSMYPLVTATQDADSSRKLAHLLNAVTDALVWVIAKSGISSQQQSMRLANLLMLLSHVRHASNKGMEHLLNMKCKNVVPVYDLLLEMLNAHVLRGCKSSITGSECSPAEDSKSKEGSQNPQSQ

C[C@]12CC[C@@H]3c4ccc(O)cc4CC[C@H]3[C@@H]1[C@@H](O)[C@@H](O)[C@@H]2O [E4, 1,3,5(10)-estratrien-3,15α,16α,17β-tetrol]
relative binding affinity for human SHBG [1]: does not bind at all
inhibition at 0.03 µM (human ERβ; Test 1): 19%
inhibition at 0.03 µM (human ERβ; Test 2): 25%
inhibition at 0.03 µM (human ERβ; Test 3): 30%
inhibition at 0.1 µM (human ERβ; Test 1): 56%
inhibition at 0.1 µM (human ERβ; Test 2): 54%
inhibition at 0.1 µM (human ERβ; Test 3): 50%
inhibition at 0.3 µM (human ERβ; Test 1): 74%
inhibition at 0.3 µM (human ERβ; Test 2): 74%
inhibition at 0.3 µM (human ERβ; Test 3): 77%
inhibition at 1 µM (human ERβ; Test 1): 87%
inhibition at 1 µM (human ERβ; Test 2): 90%
inhibition at 1 µM (human ERβ; Test 3): 95%
